# Assay results: publication PMC7346113, “Screening of Natural Stilbene Oligomers from Vitis vinifera for Anticancer Activity on Human Hepatocellular Carcinoma Cells” (Antioxidants, 2020)
# Experiments:
# Assay type in all cases: cell-based, human
# [1] = tested on: HH4; assay: Cell viability, crystal violet assay, HH4 non-transformed hepatocytes; details: Homo sapiens, Hepatocyte, mean ± standard error
# From the text: The human hepatoma cell line HepG2 was obtained from the American Tissue Culture Collection (ATCC, Manassas, VA, USA). The human hepatoma cell line Hep3B was obtained from the European Collection of Authenticated Cell Cultures (ECACC, Porton Down, Salisbury, Wiltshire, UK). HH4 non-transformed human hepatocyte cell line (kindly provided by Dr. I. Fabregat, Molecular Oncology, Bellvitge Biomedical Research Institute, Spain) was established as described.
# HepG2 and Hep3B cell lines were maintained in Eagle’s Minimum Essential Medium and HH4 cell line was grown in Ham´s F12 Nutrient Mixture (Sigma-Aldrich, St Louis, MO, USA). Both culture media were supplemented with 10% heat inactivated fetal bovine serum, 2 mM L-glutamine and antibiotics (0.1 mg/mL streptomycin and 100 U/mL penicillin) (Sigma-Aldrich, St Louis, MO, USA). Cell cultures were grown in an incubator at 37 °C with 5% CO2 atmosphere. After reaching approximately 80% of confluence, cells were detached in a solution of 0.1% trypsin and 0.04% EDTA and plated as required for further experiments.
# Cell lines were seeded into 96-well plates at 5 × 10^3 (HepG2) and 3 × 10^3 (Hep3B and HH4) cells/well 24 h before treatment. Increasing concentrations of the monomer trans-resveratrol, the dimers ampelopsin A and trans-ε-viniferin and the tetramers isohopeaphenol, hopeaphenol, R2-viniferin and R-viniferin were then added and cells were incubated for 24, 48, and 72 h. Stilbenes were dissolved in dimethyl sulfoxide (DMSO), Sigma-Aldrich, St Louis, MO, USA) at a final concentration of 0.01%. The same amount of DMSO was added to control cells. After treatment, the cell viability was determined using the crystal violet assay. The absorbance was recorded at 590 nm in a Synergy HT microplate reader (BioTek, Winooski, VT, USA). Cell viability was calculated as the percentage of viable cells treated with stilbene versus untreated control cells using the following equation: Cell viability (%) = [OD (Treatment) − OD (Blank)]/[OD (Control) − OD (Blank)] × 100. The cytotoxic effect of stilbenes was determined by calculating IC50 values using non-linear regression analysis (GraphPad Prism 6, San Diego, CA, USA).
# The statistical package SPSS 19.0 (SPSS Inc. Chicago, IL, USA) was used for data analysis. The results were expressed as mean ± standard error (SE) from at least three experiments. Statistical significance for the differences of the means was estimated by parametric Student’s t-test. Differences between means were considered statistically significant for p < 0.05. IC50 values were derived from fitting the data to a sigmoidal dose-response curve with a three-parameter logistic model using Graph Pad Prism 6.
# [2] = tested on: HepG2; assay: Cell cycle analysis by flow cytometry (propidium iodide), HepG2; details: HepG2, 10 µM, mean ± SE
# Procedure: Exponentially growing cells were seeded in 6-wells plates (200,000 cells HepG2 and 180,000 cells Hep3B) 24 h before R2-viniferin treatment. On the day of treatment, the culture medium was replaced with culture medium containing R2-viniferin or vehicle solution (control).
# After a treatment, cells were detached by trypsinization and fixed overnight at 4 °C in 70% ice-cold ethanol diluted in phosphate buffer saline (PBS). The ethanol was then discarded and the cells were washed with ice-cold PBS and finally stained with 25 μg/mL of propidium iodide (Sigma-Aldrich, St Louis, MO, USA) in the presence of 200 μg/mL ribonuclease A (Roche Biochemicals, Indianapolis, IN, USA) for 30 min at room temperature in the dark. Flow cytometry analysis (Beckman Coulter Gallios) was carried out from a total number of 10,000 events acquired in the General Research Services SGIker of the UPV/EHU. Analysis of the data was performed using Summit 4.3 software (Dako, Glostrup, Hovedstaden, Denmark).
# [3] = tested on: caspase-3 activity in HepG2; assay: Caspase-3 activity, Ac-DEVD-AMC fluorogenic substrate
# Procedure: The activity of caspase-3 was measured using the specific synthetic tetrapeptide fluorogenic substrate Ac-DEVD-AMC (BD Pharmigen Biosciences, San Diego, CA, USA). The assay was carried out in 96-well plates in a total volume of 100 µL, with 37 μM of the substrate and 50 µg of protein in the assay medium in 100 mM HEPES, pH 7.4, containing 200 mM NaCl, 0.2% CHAPS, 2 mM EDTA, 20% glycerol, and 5 mM dithiothreitol (DTT).
# In the presence of caspase-3, the Ac-DEVD-AMC substrate is hydrolyzed and the fluorogenic compound AMC is released. The activity was determined by continuous recording of the fluorescence at λex = 360 nm and λem = 460 nm at 37 °C for 2 h every 5 min in a Synergy HT microplate reader (BioTek, Winooski, VT, USA). Results were expressed as the percentage of the fluorescence in control cells.
smiles,measurement,setting,value
Oc1ccc([C@H]2c3c(O)cc(O)cc3[C@H]3c4c(cc(O)cc4[C@@H]2c2cc(/C=C/c4cc(O)cc5c4[C@H](c4cc(O)cc(O)c4)[C@@H](c4ccc(O)cc4)O5)ccc2O)O[C@@H]3c2ccc(O)cc2)cc1 [R2-Viniferin],IC50,[1]; 24 h,> 200 µM
same,IC50,[1]; 48 h,> 200 µM
same,IC50,[1]; 72 h,> 200 µM
same,Cell cycle G0/G1 (percentage of cells),[2]; 24 h,65.6 ± 11.7%
same,Cell cycle G2/M (percentage of cells),[2]; 24 h,22.5 ± 8.5%
same,Cell cycle S (percentage of cells),[2]; 24 h,11.9 ± 3.2%
same,SubG0 (percentage of total cells),[2]; 24 h,8.5 ± 2.7%
same,Cell cycle G0/G1 (percentage of cells),[2]; 48 h,71.7 ± 10.9%
same,Cell cycle G2/M (percentage of cells),[2]; 48 h,19.3 ± 6.5%
same,Cell cycle S (percentage of cells),[2]; 48 h,9.0 ± 4.5%
same,SubG0 (percentage of total cells),[2]; 48 h,22.4 ± 11.0%
same,Cell cycle G0/G1 (percentage of cells),[2]; 72 h,75.5 ± 7.8%
same,Cell cycle G2/M (percentage of cells),[2]; 72 h,15.0 ± 2.2%
same,Cell cycle S (percentage of cells),[2]; 72 h,9.5 ± 5.6%
same,SubG0 (percentage of total cells),[2]; 72 h,71.0 ± 2.1%
same,Effect on caspase-3 activity,"[3]; HepG2, 5 µM",increased caspase-3 activity at 72 h
same,Effect on caspase-3 activity,"[3]; HepG2, 10 µM",increased the caspase-3 activity significantly from 24 h to 72 h
